Data on 24 compounds can be found in patent publication EP4803142A2 (Kayothera Inc., priority 2021, dated 2022).

One test has as its target T1, mALDH1a2 (Mus musculus, UniProt Q62148).
T1 construct: pET-Aldh1a2 transformed BL21-DE3 cultures; cell extracts
T1 sequence (Q62148 1-518): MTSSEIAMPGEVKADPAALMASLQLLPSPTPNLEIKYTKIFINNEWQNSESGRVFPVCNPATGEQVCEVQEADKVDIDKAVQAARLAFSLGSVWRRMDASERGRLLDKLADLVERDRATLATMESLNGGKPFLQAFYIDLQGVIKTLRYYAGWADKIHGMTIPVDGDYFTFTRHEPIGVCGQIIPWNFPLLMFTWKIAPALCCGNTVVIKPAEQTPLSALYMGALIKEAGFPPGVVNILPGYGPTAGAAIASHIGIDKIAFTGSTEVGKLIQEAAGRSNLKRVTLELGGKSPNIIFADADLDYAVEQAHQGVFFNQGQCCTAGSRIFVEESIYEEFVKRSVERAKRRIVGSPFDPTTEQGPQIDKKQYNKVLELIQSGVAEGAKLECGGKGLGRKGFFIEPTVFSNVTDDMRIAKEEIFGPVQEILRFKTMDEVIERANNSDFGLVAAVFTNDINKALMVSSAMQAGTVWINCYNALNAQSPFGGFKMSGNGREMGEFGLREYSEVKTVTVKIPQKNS
Kind of test: biochemical. The conditions noted are these: read-out: mAldhla2 IC50. On the procedure: (§1) Biological Example 5C. Aldh1a2 Enzyme Inhibition Assay
(§2) Cell extracts were spun at 16000 x g for 5 minutes.
(§3) Recombinant enzyme and inhibitor added immediately before assay. Reaction rate measured by resorufin fluorescence. […]
(§4) Table 3B. IC50 values (nM) for inhibition of hALDH1a2 and mALDH1a2 of selected compounds

In another test the target is T2, hALDH1a2 (Homo sapiens, UniProt O94788).
T2 construct: pET-Aldh1a2 transformed BL21-DE3 cultures; cell extracts
T2 sequence (O94788 1-518): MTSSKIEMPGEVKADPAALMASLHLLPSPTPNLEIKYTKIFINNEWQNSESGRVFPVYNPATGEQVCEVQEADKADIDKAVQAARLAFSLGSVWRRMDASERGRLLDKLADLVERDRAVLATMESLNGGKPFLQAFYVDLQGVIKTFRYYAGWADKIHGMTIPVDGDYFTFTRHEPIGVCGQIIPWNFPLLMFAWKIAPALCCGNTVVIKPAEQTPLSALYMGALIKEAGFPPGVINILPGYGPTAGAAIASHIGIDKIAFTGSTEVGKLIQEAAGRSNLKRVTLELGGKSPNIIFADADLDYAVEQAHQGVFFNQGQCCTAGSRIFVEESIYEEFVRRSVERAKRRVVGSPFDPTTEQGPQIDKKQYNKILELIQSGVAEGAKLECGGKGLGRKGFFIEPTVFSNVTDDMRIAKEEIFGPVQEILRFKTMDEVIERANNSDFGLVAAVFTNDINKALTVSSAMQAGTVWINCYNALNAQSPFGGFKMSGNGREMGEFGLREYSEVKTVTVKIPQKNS
Kind of test: biochemical. The conditions noted are these: read-out: hAldhla2 IC50. Here is the method:
as §1, §2, §3, §4

What is called IC50 is the concentration at which inhibition is half-maximal. For the compound `CCCc1cnccc1C(=O)Nc1cc2c(cc1F)NC(=O)CC2` [compound 5], the IC50 at mALDH1a2 came out at 10 µM; at hALDH1a2, 9 µM.

For `Cc1cc2ccccc2nc1Nc1ccc2c(c1)CC(C)(C)C(=O)N2` [compound 134], the figures for the IC50 on mALDH1a2 and at hALDH1a2 were 0.097 µM and 0.125 µM, respectively.

As to `CC(C)=Cc1cnc(C)cc1C(=O)Nc1ccc2c(c1)CC(C)(C)C(=O)N2` [compound 69], the IC50 at mALDH1a2 and on hALDH1a2 was > 10 µM each time.

For the compound `Cn1ccc2nc(Nc3ccc4c(c3)CC(C)(C)C(=O)N4)ccc21` [compound 113], the half-inhibitory concentration (IC50) at mALDH1a2 and at hALDH1a2 was > 10 µM throughout.

Regarding `Cc1cc(C(=O)Nc2cc3c(cc2F)NC(=O)CC3)ccn1` [compound 16], the concentration for half-maximal inhibition (IC50) at mALDH1a2 and at hALDH1a2 was 10 µM in each case.

In the case of `CC1(C)Cc2cc(Nc3cnc4ccc(C(=O)O)cc4n3)ccc2NC1=O` [compound 118], the IC50 on mALDH1a2 and on hALDH1a2 was > 10 µM in each case.

On to `CC1(C)Cc2cc(Nc3ccc(Cl)c(Cl)n3)ccc2NC1=O` [compound 97], for which the IC50 on mALDH1a2 amounted to 0.294 µM; at hALDH1a2, 0.466 µM.

`Cc1cccc2ncc(Nc3ccc4c(c3)CCC(=O)N4)cc12` [compound 101]: the results for the IC50 at mALDH1a2 and at hALDH1a2 were 0.935 µM and 1.89 µM, respectively.

Consider `CC(C)c1cnccc1C(=O)Nc1cc2c(cc1F)NC(=O)CC2` [compound 6], for which the IC50 at mALDH1a2 is 10 µM; at hALDH1a2, > 10 µM.

As for `CCc1c[nH]c(=O)cc1C(=O)Nc1ccc2c(c1)CCC(=O)N2` [compound 51], the IC50 on mALDH1a2 and at hALDH1a2 was > 10 µM each time.

In the case of `CC1(C)Cc2cc(Nc3ccc4c(Cl)cccc4n3)ccc2NC1=O` [compound 112], the figures for the IC50 at mALDH1a2 and at hALDH1a2 were 0.3 µM and 0.346 µM, respectively.

Consider `CC1(C)Cc2cc(Nc3c[nH]c4ccccc4c3=O)ccc2NC1=O` [compound 115], for which the IC50 at mALDH1a2 and on hALDH1a2 was > 10 µM each time.

As to `Cc1cccc2nc(Nc3ccc4c(c3)CCC(=O)N4)ccc12` [compound 87], the IC50 stood at 0.149 µM on mALDH1a2 and 0.419 µM on hALDH1a2.

`CC1(C)Cc2cc(Nc3ccc4cnccc4c3)ccc2NC1=O` [compound 103]: the results for the IC50 on mALDH1a2 and at hALDH1a2 were 5 µM and > 10 µM, respectively.

Regarding `O=C1CCc2cc(NC(=O)c3ccncc3C(F)(F)F)ccc2N1` [compound 54], the IC50 on mALDH1a2 stood at 0.224 µM; on hALDH1a2, 1.06 µM.

`N#Cc1ccc2nc(Nc3ccc4c(c3)CCC(=O)N4)ccc2c1` [compound 88]: the IC50 at mALDH1a2 and at hALDH1a2 was > 10 µM throughout.

As to `CCc1cnccc1C(=O)Nc1ccc2c(c1)C(C)CC(=O)N2` (stereo not drawn) [compound 64], the IC50 was 5 µM at mALDH1a2 and 2.79 µM at hALDH1a2.

For the compound `Cc1ccccc1C(=O)Nc1ccc2c(c1)CCC(=O)N2` [compound 13], the IC50 stood at 2.95 µM at mALDH1a2 and 5 µM at hALDH1a2.

For the compound `N#Cc1cccc2nc(Nc3ccc4c(c3)CCC(=O)N4)ccc12` [compound 86], the IC50 at mALDH1a2 stood at 0.084 µM; at hALDH1a2 it was 10 µM.

Take `CC1(C)Cc2cc(Nc3cccc(Cl)n3)ccc2NC1=O` [compound 122]: the IC50 at mALDH1a2 and at hALDH1a2 was > 10 µM in each case.

As for `Cc1cc(C(=O)Nc2ccc3c(c2)CCC(=O)N3)ccn1` [compound 24], the IC50 at mALDH1a2 and on hALDH1a2 was 100 µM in each case.

Take `CC1(C)Cc2cc(NC3COc4ccccc4C3)ccc2NC1=O` (stereo not drawn) [compound 105]: the IC50 on mALDH1a2 and at hALDH1a2 was > 10 µM throughout.

Consider `Cc1cc(C(=O)Nc2cc3c(cc2F)NC(=O)C(C)(C)C3)c(CC(C)C)cn1` [compound 37], for which the IC50 on mALDH1a2 and on hALDH1a2 was > 10 µM each time.

Turning to `COCc1cnccc1C(=O)Nc1ccc2c(c1)CCC(=O)N2` [compound 57], the IC50 on mALDH1a2 and on hALDH1a2 was > 10 µM each time.
